These results are taken from patent US9115101B2 (Genentech, Inc., priority 2012, dated 2015).

Molecules are shown by their SMILES. pIC50: −log10 of the molar value.

The experiment concerns the target T1, RORc ligand binding domain (Homo sapiens, UniProt P51449).
T1 construct: host or cells: E. coli
T1 sequence (P51449 269-508 limits assumed): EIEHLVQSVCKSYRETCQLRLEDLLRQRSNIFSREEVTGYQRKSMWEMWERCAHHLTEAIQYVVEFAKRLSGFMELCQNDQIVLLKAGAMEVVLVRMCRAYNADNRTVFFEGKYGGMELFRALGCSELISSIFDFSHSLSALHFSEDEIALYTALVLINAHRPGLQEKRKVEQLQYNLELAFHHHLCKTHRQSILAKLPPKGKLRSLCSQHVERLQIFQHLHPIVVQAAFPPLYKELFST
The experiment is described as follows: In Vitro RORc Ligand Binding Assay (25-[3H]hydroxycholesterol radioligand filtration). Particulars: In Vitro RORc Ligand Binding Assay; Table 4; read-out: RORc IC50.

Consider `CC(=O)N1CCN(c2ccc(CN3[C@@H](C)CCC(c4ccccc4)S3(=O)=O)cc2Cl)CC1` (single isomer, unassigned) [Example 163], for which the pIC50 was 7.24.

As for `CC(=O)N1CCN(c2ccc(CN3[C@@H](C)CCC(c4ccccc4)S3(=O)=O)cc2Cl)CC1` (single isomer, unassigned) [Example 164], the pIC50 is 6.94.

Consider `C[C@H]1CCC(c2ccccc2)S(=O)(=O)N1Cc1ccc(NC2CCN(S(C)(=O)=O)CC2)cc1F` (single isomer, unassigned) [Example 166], for which the pIC50 was 7.60.

For the molecule `C[C@H]1CCC(c2ccccc2)S(=O)(=O)N1Cc1ccc(NC2CCN(S(C)(=O)=O)CC2)cc1F` (single isomer, unassigned) [Example 167], the negative-log IC50 (pIC50) was 8.05.

In the case of `CC(=O)N1CCN(c2ccc(CN3CC(C)(C)CC(c4ccccc4)S3(=O)=O)c(F)c2)CC1` (single isomer, unassigned) [Example 168, 1-{4-[4-(4,4-Dimethyl-1,1-dioxo-6-phenyl-[1,2]thiazinan-2-ylmethyl)-3-fluoro-phenyl]-piperazin-1-yl}-ethanone], the pIC50 was 6.00.

In the case of `CC(=O)N1CCN(c2ccc(CN3C[C@H](C)CC(c4ccccc4)S3(=O)=O)c(F)c2)CC1` (single isomer, unassigned) [Example 169], the pIC50 is 6.88.

As to `CC(=O)N1CCN(c2ccc(CN3C[C@H](C)CC(c4ccccc4)S3(=O)=O)c(F)c2)CC1` (single isomer, unassigned) [Example 170], the pIC50 was 7.27.

Consider `CC(=O)N1CCN(c2ccc(CN3CC(C)(C)CC(c4ccccc4)S3(=O)=O)c(F)c2)CC1` (single isomer, unassigned) [Example 171, 1-{4-[4-(4,4-Dimethyl-1,1-dioxo-6-phenyl-[1,2]thiazinan-2-ylmethyl)-3-fluoro-phenyl]-piperazin-1-yl}-ethanone], for which the negative-log IC50 (pIC50) is 6.70.

In the case of `CC(=O)N1CCN(c2ccc(CN3[C@@H](C)CCC(c4ccc(C#N)cc4)S3(=O)=O)c(F)c2)CC1` (single isomer, unassigned) [Example 172], the pIC50 was 5.99.

With `CC(=O)N1CCN(c2ccc(CN3[C@@H](C)CCC(c4ccc(C#N)cc4)S3(=O)=O)c(F)c2)CC1` (single isomer, unassigned) [Example 173], the pIC50 was 5.69.

On to `CC(=O)N1CCN(c2ccc(CN3[C@@H](C)CCC(c4ccc(Cl)cc4)S3(=O)=O)c(F)c2)CC1` (single isomer, unassigned) [Example 174], for which the pIC50 was 7.11.

For `CC(=O)N1CCN(c2ccc(CN3[C@@H](C)CCC(c4ccc(Cl)cc4)S3(=O)=O)c(F)c2)CC1` (single isomer, unassigned) [Example 175], the pIC50 was 7.52.

On to `COc1ccc(C2CC[C@H](C)N(Cc3ccc(N4CCN(C(C)=O)CC4)cc3F)S2(=O)=O)cc1` (single isomer, unassigned) [Example 176], for which the pIC50 is 6.88.

With `COc1ccc(C2CC[C@H](C)N(Cc3ccc(N4CCN(C(C)=O)CC4)cc3F)S2(=O)=O)cc1` (single isomer, unassigned) [Example 177], the pIC50 is 6.83.

With `CC(=O)N1CCN(c2cnc(CN3[C@@H](C)CCC(c4ccccc4)S3(=O)=O)cn2)CC1` (single isomer, unassigned) [Example 178], the pIC50 is 5.84.

On to `CC(=O)N1CCN(c2cnc(CN3[C@@H](C)CCC(c4ccccc4)S3(=O)=O)cn2)CC1` (single isomer, unassigned) [Example 179], for which the pIC50 was 6.03.

For the molecule `C[C@H](O)C(=O)N1C[C@H]2C[C@@H]1CN2c1ccc(CN2[C@@H](C)CCC(c3ccccc3)S2(=O)=O)c(F)c1` (single isomer, unassigned) [Example 182], the pIC50 was 7.39.

Take `C[C@H](O)C(=O)N1C[C@H]2C[C@@H]1CN2c1ccc(CN2[C@@H](C)CCC(c3ccccc3)S2(=O)=O)c(F)c1` (single isomer, unassigned) [Example 183]: the pIC50 was 7.40.

`CC(=O)N1CCN(c2ccc(CN3[C@@H](C)CCC(c4ccc(C)cc4)S3(=O)=O)c(F)c2)CC1` (single isomer, unassigned) [Example 184]: the pIC50 was 7.01.

As to `CC(=O)N1CCN(c2ccc(CN3[C@@H](C)CCC(c4cccc(Cl)c4)S3(=O)=O)c(F)c2)CC1` (single isomer, unassigned) [Example 185], the pIC50 is 7.60.

`COc1cccc(C2CC[C@H](C)N(Cc3ccc(N4CCN(C(C)=O)CC4)cc3F)S2(=O)=O)c1` (single isomer, unassigned) [Example 190]: the pIC50 was 6.93.

On to `COc1cccc(C2CC[C@H](C)N(Cc3ccc(N4CCN(C(C)=O)CC4)cc3F)S2(=O)=O)c1` (single isomer, unassigned) [Example 191], for which the pIC50 was 6.94.

For `CC(=O)N1CCN(c2ccc(CN3[C@@H](C)CCC(c4cccc(C)c4)S3(=O)=O)c(F)c2)CC1` (single isomer, unassigned) [Example 192], the pIC50 was 8.22.

`CC(=O)N1CCN(c2ccc(CN3[C@@H](C)CCC(c4cccc(C)c4)S3(=O)=O)c(F)c2)CC1` (single isomer, unassigned) [Example 193]: the pIC50 is 7.62.

Take `CC[C@H]1CCC(c2ccccc2)S(=O)(=O)N1Cc1ccc(N2CCN(C(C)=O)CC2)cc1F` (single isomer, unassigned) [Example 194]: the pIC50 was 7.74.

Regarding `CC[C@H]1CCC(c2ccccc2)S(=O)(=O)N1Cc1ccc(N2CCN(C(C)=O)CC2)cc1F` (single isomer, unassigned) [Example 195], the negative-log IC50 (pIC50) is 7.14.

As for `CC(=O)N1CCN(c2ccc(CN3CC4(CC4)CC(c4ccccc4)S3(=O)=O)c(F)c2)CC1` (single isomer, unassigned) [Example 196, 1-{4-[4-(6,6-Dioxo-7-phenyl-6-thia-5-aza-spiro[2.5]oct-5-ylmethyl)-3-fluoro-phenyl]-piperazin-1-yl}-ethanone], the pIC50 is 6.72.

On to `CC(=O)N1CCN(c2ccc(CN3C[C@@H](C)CC(c4ccccc4)S3(=O)=O)c(F)c2)CC1` (single isomer, unassigned) [Example 197], for which the pIC50 is 6.45.

Turning to `CC(=O)N1CCN(c2ccc(CN3C[C@@H](C)CC(c4ccccc4)S3(=O)=O)c(F)c2)CC1` (single isomer, unassigned) [Example 198], the pIC50 was 7.72.

As for `CC(=O)N1CCN(c2ccc(CN3CC4(CC4)CC(c4ccccc4)S3(=O)=O)c(F)c2)CC1` (single isomer, unassigned) [Example 199, 1-{4-[4-(6,6-Dioxo-7-phenyl-6-thia-5-aza-spiro[2.5]oct-5-ylmethyl)-3-fluoro-phenyl]-piperazin-1-yl}-ethanone], the pIC50 was 7.85.

With `CC(=O)N1CCN(c2ccc(CN3[C@@H](C)CCC(c4cccc(Cl)c4)S3(=O)=O)c(F)c2)CC1` (single isomer, unassigned) [Example 200], the pIC50 is 7.77.

For `CC(=O)N1CCN(c2ccc(CN3[C@@H](C)CCC(c4ccccc4Cl)S3(=O)=O)c(F)c2)CC1` (single isomer, unassigned) [Example 201], the pIC50 is 6.74.

In the case of `CC(=O)N1CCN(c2ccc(CN3[C@@H](C)CCC(c4cccc(C#N)c4)S3(=O)=O)c(F)c2)CC1` (single isomer, unassigned) [Example 202], the pIC50 was 6.13.

Turning to `CC(=O)N1CCN(c2ccc(CN3[C@@H](C)CCC(c4cccc(C#N)c4)S3(=O)=O)c(F)c2)CC1` (single isomer, unassigned) [Example 203], the pIC50 was 6.69.

For the molecule `CC(=O)N1CCN(c2ccc(CN3[C@@H](C)CC[C@@H](c4ccccc4Cl)S3(=O)=O)c(F)c2)CC1` (single isomer, unassigned) [Example 204], the pIC50 is 7.28.

`CC(=O)N1CCN(c2ccc(CN3[C@@H](C)CCC(c4ccccc4C)S3(=O)=O)c(F)c2)CC1` (single isomer, unassigned) [Example 205]: the pIC50 was 6.51.

Turning to `CC(=O)N1CCN(c2ccc(CN3[C@@H](C)CCC(c4ccccc4C)S3(=O)=O)c(F)c2)CC1` (single isomer, unassigned) [Example 206], the pIC50 is 7.85.

`CC(=O)N1CCN(c2ccc(CN3[C@@H](C)CCC(c4ccccc4C#N)S3(=O)=O)c(F)c2)CC1` (single isomer, unassigned) [Example 207]: the negative-log IC50 (pIC50) is 5.74.

In the case of `CC(=O)N1CCN(c2ccc(CN3[C@@H](C)CCC(c4ccccc4C#N)S3(=O)=O)c(F)c2)CC1` (single isomer, unassigned) [Example 208], the negative logarithm of the IC50 (pIC50) was 7.49.

Take `C[C@H]1CCC(c2ccccc2)S(=O)(=O)N1Cc1ccc(N2CCC(c3ccn[nH]3)CC2)cc1F` (single isomer, unassigned) [Example 211]: the pIC50 is 7.70.

For the molecule `C[C@H]1CCC(c2ccccc2)S(=O)(=O)N1Cc1ccc(N2CCC(c3ccn[nH]3)CC2)cc1F` (single isomer, unassigned) [Example 212], the pIC50 was 7.80.

As for `C[C@H]1CCC(c2ccccc2)S(=O)(=O)N1Cc1ccc(N2CCC(n3cnnc3)CC2)cc1` (single isomer, unassigned) [Example 213], the pIC50 was 7.12.

On to `C[C@H]1CCC(c2ccccc2)S(=O)(=O)N1Cc1ccc(N2CCC(n3cnnc3)CC2)cc1` (single isomer, unassigned) [Example 214], for which the pIC50 is 6.62.

For `C[C@H]1CCC(c2ccccc2)S(=O)(=O)N1Cc1ccc(N2CCC(n3ccnn3)CC2)cc1F` (single isomer, unassigned) [Example 218], the negative-log IC50 (pIC50) is 7.96.

Take `C[C@H]1CCC(c2ccccc2)S(=O)(=O)N1Cc1ccc(N2CCC(c3ncno3)CC2)cc1F` (single isomer, unassigned) [Example 219]: the pIC50 is 7.38.

Consider `C[C@H]1CCC(c2ccccc2)S(=O)(=O)N1Cc1ccc(N2CCC(c3ncno3)CC2)cc1F` (single isomer, unassigned) [Example 220], for which the pIC50 was 7.37.
